Patent publication US6593357B1, “Pyrazole compositions useful as inhibitors of ERK” (Vertex Pharmaceuticals Incorporated, priority 2000, dated 2003)

biological target: ERK2 (Homo sapiens, UniProt P28482); test: ERK2 inhibition, spectrophotometric coupled-enzyme assay; assay type: biochemical; conditions: ERK2 Inhibitory Activity (Ki class), activated ERK2 10 nM, 65 μM ATP, 30° C., pH 7.5
Sequence (P28482 whole entry): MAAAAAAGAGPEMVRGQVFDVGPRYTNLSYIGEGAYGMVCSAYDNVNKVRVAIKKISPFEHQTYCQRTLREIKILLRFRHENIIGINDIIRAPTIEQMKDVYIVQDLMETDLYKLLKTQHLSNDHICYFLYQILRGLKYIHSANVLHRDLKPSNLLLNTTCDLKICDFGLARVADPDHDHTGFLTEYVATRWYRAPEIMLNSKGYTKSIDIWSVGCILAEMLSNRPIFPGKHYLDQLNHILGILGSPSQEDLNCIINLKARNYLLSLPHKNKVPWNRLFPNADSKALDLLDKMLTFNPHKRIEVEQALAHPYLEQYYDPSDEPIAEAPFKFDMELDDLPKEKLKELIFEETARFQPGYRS

Row | Compound | Ki
1 | O=C(NC1c2ccccc2CC1O)c1cc(-c2[nH]ncc2-c2cccc(Cl)c2)c[nH]1 (stereo not shown) [II-155] | 1000 to 5000 nM

same assay, conditions: activated ERK2 10 nM, 65 μM ATP, 30° C., pH 7.5; read-out: ERK2 Inhibitory Activity (Ki class)

Row | Compound | Ki
2 | CC1CCN(C(=O)c2cc(-c3[nH]ncc3-c3cccc(Cl)c3)c[nH]2)CC1 [II-136] | 1000 to 5000 nM
3 | O=C(NCC1CCCO1)c1cc(-c2[nH]ncc2-c2ccc(F)c(Cl)c2)c[nH]1 (stereo not shown) [II-100] | < 1000 nM
4 | O=C(c1cc(-c2[nH]ncc2-c2cccc(Br)c2)c[nH]1)N(CCCO)Cc1ccncc1 [II-156] | 1000 to 5000 nM
5 | Cc1ccc(N2CCN(C(=O)c3cc(-c4[nH]ncc4-c4cccc(Br)c4)c[nH]3)CC2)cc1 [II-126] | 1000 to 5000 nM
6 | COc1ccc(-c2cn[nH]c2-c2c[nH]c(C(=O)NOCc3ccccc3)c2)cc1 [II-133] | 1000 to 5000 nM
7 | CCOC(=O)c1cc(-c2[nH]ncc2-c2ccc([N+](=O)[O-])cc2)c[nH]1 [II-165] | > 5000 nM
8 | CCOC(=O)c1cc(-c2[nH]ncc2-c2cccc(Br)c2)c[nH]1 [II-157] | 1000 to 5000 nM
9 | CN(Cc1ccccc1)C(=O)c1cc(-c2[nH]ncc2-c2cccc(Br)c2)c[nH]1 [II-83] | < 1000 nM
10 | O=C(c1cc(-c2[nH]ncc2-c2cccc(Cl)c2F)c[nH]1)N1CCOCC1 [II-129] | 1000 to 5000 nM
11 | CC(C)(C)OC(=O)N1CCCC(CNC(=O)c2cc(-c3[nH]ncc3-c3cc(Cl)cc(Cl)c3)c[nH]2)C1 (stereo not shown) [II-125] | 1000 to 5000 nM
12 | COc1cccc(-c2cn[nH]c2-c2c[nH]c(C(=O)NCc3cccnc3)c2)c1 [II-26] | < 1000 nM
13 | O=C(c1cc(-c2[nH]ncc2-c2ccc(F)c(Cl)c2)c[nH]1)N1CCOCC1 [II-107] | < 1000 nM
14 | O=C(NC(CCO)c1ccccc1)c1cc(-c2[nH]ncc2-c2cccc(Br)c2)c[nH]1 (stereo not shown) [II-86] | < 1000 nM
15 | O=C(NCc1ccccc1)c1cc(-c2[nH]ncc2-c2cccc(F)c2)c[nH]1 [II-63] | < 1000 nM
16 | O=C(NCc1ccccc1)c1cc(-c2n[nH]cc2-c2ccccc2)c[nH]1 [II-5, 4-(4-phenyl-1H-pyrazole-3-yl)-1H-pyrrole-2-carboxylic acid benzylamide] | < 1000 nM
17 | O=C(NCc1ccccc1)c1cc(-c2[nH]ncc2-c2cccc(Br)c2)c[nH]1 [II-299] | > 5000 nM
18 | O=C(c1cc(-c2[nH]ncc2-c2ccccc2)c[nH]1)N1CCOCC1 [II-19] | < 1000 nM
19 | O=C(NCc1cccnc1)c1cc(-c2[nH]ncc2-c2ccccc2)c[nH]1 [II-18] | < 1000 nM
20 | O=C(NC(COc1ccccc1)c1ccc2c(c1)OCCO2)c1cc(-c2[nH]ncc2-c2cccc(Br)c2)c[nH]1 (stereo not shown) [II-290] | 1000 to 5000 nM
21 | CCOC(=O)c1cc(-c2[nH]ncc2-c2ccc(Cl)cc2)c[nH]1 [II-7] | > 5000 nM
22 | Cc1ccc(CNC(=O)c2cc(-c3[nH]ncc3-c3cccc(Br)c3)c[nH]2)o1 [II-58] | < 1000 nM
23 | O=C(NC(CO)c1ccccc1)c1cc(-c2[nH]ncc2-c2cccc(C(F)(F)F)c2)c[nH]1 (stereo not shown) [II-49] | < 1000 nM
24 | CCN(C)C(=O)c1cc(-c2[nH]ncc2-c2cccc(OC)c2)c[nH]1 [II-292] | > 5000 nM
25 | CCOC(=O)c1cc(-c2[nH]ncc2-c2cccc(OC)c2)c[nH]1 [II-10] | > 5000 nM
26 | O=C(c1cc(-c2[nH]ncc2-c2ccccc2)c[nH]1)N1CCCC1 [II-4] | < 1000 nM

Row | Compound | Ki
27 | CC(C)NC(=O)c1cc(-c2[nH]ncc2-c2cccc(C(=O)O)c2)c[nH]1 [II-160] | 1000 to 5000 nM
28 | O=C(NC(CO)c1ccccc1)c1cc(-c2[nH]ncc2-c2cc(I)c(O)c([N+](=O)[O-])c2)c[nH]1 (stereo not shown) [II-42] | < 1000 nM
29 | COc1cccc(-c2cn[nH]c2-c2c[nH]c(C(=O)N3CCOCC3)c2)c1 [II-27] | < 1000 nM
30 | COc1cccc(-c2cn[nH]c2-c2c[nH]c(C(=O)N3CCN(C)CC3)c2)c1 [II-29] | > 5000 nM
31 | CS(=O)(=O)c1ccc(CNC(=O)c2cc(-c3[nH]ncc3-c3cccc(Br)c3)c[nH]2)cc1 [II-55] | < 1000 nM
32 | Nc1cccc(-c2cn[nH]c2-c2c[nH]c(C(=O)NCc3ccccc3)c2)c1 [II-73] | < 1000 nM
33 | Cc1ccccc1CNC(=O)c1cc(-c2[nH]ncc2-c2cccc(Br)c2)c[nH]1 [II-60] | < 1000 nM
34 | CCOC(=O)c1cc(-c2[nH]ncc2-c2cccc([N+](=O)[O-])c2)c[nH]1 [II-148] | 1000 to 5000 nM
35 | COc1ccc(OC)c(CNC(=O)c2cc(-c3[nH]ncc3-c3cccc(Br)c3)c[nH]2)c1 [II-124] | 1000 to 5000 nM
36 | O=C(c1cc(-c2[nH]ncc2-c2cccc(Br)c2)c[nH]1)N1CCN(c2cnccn2)CC1 [II-138] | 1000 to 5000 nM
37 | CC(C)ONC(=O)c1cc(-c2[nH]ncc2-c2cccc(Br)c2)c[nH]1 [II-161] | > 5000 nM
38 | O=C(c1cc(-c2[nH]ncc2-c2cccc(Br)c2)c[nH]1)N(Cc1ccccc1)[C@H](CO)c1ccccc1 [II-288] | 1000 to 5000 nM
39 | O=C(NCc1cccc(C(F)(F)F)c1)c1cc(-c2[nH]ncc2-c2cccc(Br)c2)c[nH]1 [II-47] | < 1000 nM
40 | CC(C)NC(=O)c1cc(-c2[nH]ncc2-c2ccccc2)c[nH]1 [II-20] | < 1000 nM
41 | Nc1cccc(-c2cn[nH]c2-c2c[nH]c(C(=O)NCc3ccccc3)c2)c1 [II-131] | 1000 to 5000 nM
42 | CN(C)CCNC(=O)c1cc(-c2[nH]ncc2-c2ccccc2)c[nH]1 [II-297] | > 5000 nM
43 | CCOC(=O)c1cc(-c2[nH]ncc2-c2ccc(N)cc2)c[nH]1 [II-164] | > 5000 nM
44 | CCOC(=O)c1cc(-c2[nH]ncc2-c2ccccc2)c[nH]1 [II-2] | > 5000 nM
45 | COc1cccc(-c2cn[nH]c2-c2c[nH]c(C(=O)N3CCCC3)c2)c1 [II-24] | < 1000 nM
46 | O=C(c1cc(-c2[nH]ncc2-c2cccc(Br)c2)c[nH]1)N1CCN(c2ccc(F)cc2)CC1 [II-128] | 1000 to 5000 nM
47 | COc1cccc(CNC(=O)c2cc(-c3[nH]ncc3-c3cccc(Br)c3)c[nH]2)c1 [II-46] | < 1000 nM
48 | O=C(NCc1ccccc1)c1cc(-c2[nH]ncc2-c2cc(I)c(O)c([N+](=O)[O-])c2)c[nH]1 [II-52] | < 1000 nM
49 | O=C(c1cc(-c2[nH]ncc2-c2cccc(Br)c2)c[nH]1)N1CCC(O)(c2ccc(Br)cc2)CC1 [II-123] | 1000 to 5000 nM
50 | O=C(NC(CCO)c1ccccc1)c1cc(-c2[nH]ncc2-c2cccc(Br)c2)c[nH]1 (stereo not shown) [II-59] | < 1000 nM
51 | COc1cc(CNC(=O)c2cc(-c3[nH]ncc3-c3cccc(Br)c3)c[nH]2)cc(OC)c1 [II-68] | < 1000 nM

Row | Compound | Ki
52 | Cc1cccc(-c2cn[nH]c2-c2c[nH]c(C(=O)NC(CO)c3ccccc3)c2)c1 (stereo not shown) [II-75] | < 1000 nM
53 | O=C(NCC1CCCO1)c1cc(-c2[nH]ncc2-c2cc(Cl)cc(Cl)c2)c[nH]1 (stereo not shown) [II-78] | < 1000 nM
54 | O=C(NCc1cccnc1)c1cc(-c2[nH]ncc2-c2ccc(F)c(F)c2)c[nH]1 [II-116] | 1000 to 5000 nM
55 | CNC(=O)c1cc(-c2[nH]ncc2-c2cccc(Br)c2)c[nH]1 [II-152] | 1000 to 5000 nM
56 | COc1cccc(-c2cn[nH]c2-c2c[nH]c(C(=O)NCCN(C)C)c2)c1 [II-25] | > 5000 nM
57 | O=C(NCc1ccccc1)c1cc(-c2[nH]ncc2-c2ccc(Cl)cc2)c[nH]1 [II-92] | < 1000 nM
58 | O=C(NOCc1ccccc1)c1cc(-c2[nH]ncc2-c2ccc(F)cc2)c[nH]1 [II-146] | 1000 to 5000 nM
59 | O=C(NCc1ccccc1)c1cc(-c2[nH]ncc2-c2cccc(O)c2)c[nH]1 [II-95] | < 1000 nM
60 | NNC(=O)c1cc(-c2[nH]ncc2-c2cccc([N+](=O)[O-])c2)c[nH]1 [II-137] | 1000 to 5000 nM
61 | O=C(NCCO)c1cc(-c2[nH]ncc2-c2cccc(Br)c2)c[nH]1 [II-130] | 1000 to 5000 nM
62 | CCOC(=O)c1cc(-c2[nH]ncc2-c2ccc(OC)cc2)c[nH]1 [II-8] | > 5000 nM
63 | O=C(NCc1ccc(-c2cnns2)cc1)c1cc(-c2[nH]ncc2-c2cccc(Br)c2)c[nH]1 [II-110] | < 1000 nM
64 | COc1cccc(-c2cn[nH]c2-c2c[nH]c(C(=O)NCc3ccco3)c2)c1 [II-30] | < 1000 nM
65 | O=C(N[C@@H](CO)Cc1ccccc1)c1cc(-c2[nH]ncc2-c2cccc(Br)c2)c[nH]1 [II-91] | < 1000 nM
66 | CCOC(=O)c1cc(-c2[nH]ncc2-c2cccc(N)c2)c[nH]1 [II-9] | > 5000 nM
67 | COc1ccc(-c2cn[nH]c2-c2c[nH]c(C(=O)NCc3ccccc3)c2)cc1 [II-117] | 1000 to 5000 nM
68 | O=C(c1cc(-c2[nH]ncc2-c2ccc(Cl)c(Cl)c2)c[nH]1)N1CCOCC1 [II-127] | 1000 to 5000 nM
69 | O=C(c1cc(-c2[nH]ncc2-c2cccc(Br)c2)c[nH]1)N1CCC(O)(c2ccccc2)CC1 [II-102] | < 1000 nM
70 | CCOC(=O)c1cc(-c2[nH]ncc2-c2cccc(Cl)c2)c[nH]1 [II-151] | 1000 to 5000 nM
71 | O=C(NCC1CCCO1)c1cc(-c2[nH]ncc2-c2ccc(F)c(F)c2)c[nH]1 (stereo not shown) [II-120] | 1000 to 5000 nM
72 | COc1cccc(-c2cn[nH]c2-c2c[nH]c(C(=O)N3CCOCC3)c2)c1 [II-135] | 1000 to 5000 nM
73 | O=C(NNc1cccc(C(F)(F)F)c1)c1cc(-c2[nH]ncc2-c2cccc(Br)c2)c[nH]1 [II-56] | < 1000 nM
74 | COc1cccc(N2CCN(C(=O)c3cc(-c4[nH]ncc4-c4cccc(Br)c4)c[nH]3)CC2)c1 [II-122] | 1000 to 5000 nM
75 | CCOC(=O)c1cc(-c2[nH]ncc2-c2cccc(Cl)c2)c[nH]1 [II-13] | < 1000 nM
76 | O=C(c1cc(-c2[nH]ncc2-c2cccc(Br)c2)c[nH]1)N(CCCO)Cc1ccccc1 [II-139] | 1000 to 5000 nM
